Consider 14 molecules from patent publication US20100210836A1, “SMALL MOLECULE INHIBITORS OF LYMPHOID TYROSINE PHOSPHATASE” (University of Southern California, priority 2009, published 2010).

What is called IC50 is the concentration needed to halve the response being measured.

The target of the first assay is T1, LYP/PTPN22 (Homo sapiens, UniProt Q9Y2R2).
T1 construct: catalytic domains of LYP (aa 2-309) and PTP-PEST (aa 2-323, PEST); 6xHis (N, cleaved yes); made in house; host or cells: E. coli BL21
T1 sequence (Q9Y2R2 2-309): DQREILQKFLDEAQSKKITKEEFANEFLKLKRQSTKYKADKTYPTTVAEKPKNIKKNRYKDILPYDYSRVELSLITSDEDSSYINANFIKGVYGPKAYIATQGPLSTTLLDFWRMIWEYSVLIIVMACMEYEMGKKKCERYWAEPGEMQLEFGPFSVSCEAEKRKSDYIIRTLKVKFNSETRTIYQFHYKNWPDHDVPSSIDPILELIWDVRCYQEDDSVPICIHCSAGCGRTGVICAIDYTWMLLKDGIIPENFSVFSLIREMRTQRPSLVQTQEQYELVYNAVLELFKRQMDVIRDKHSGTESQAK
As to the kind of experiment: biochemical. To be noted: LYP IC50, Table IV, analogues of E3P13.
Procedure: Chemical Library Screening for LYP Inhibitors. A library consisting of a highly diverse set of 4,000 compounds was screened in a 96-well format in an assay specific for LYP activity. […] The reaction mixture with the compounds was incubated for 25 min at 37° C. […] All assays were done in triplicate. The IC50 values were then determined for each drug from a plot of log [drug concentration] versus percentage of enzyme inhibition. Absorbance data were measured using a Molecular Devices Emax Precision Microplate reader.
Identification of Compounds as LYP Inhibitors. We initially screened a library of 4000 drug-like small-molecule compounds against LYP/PTPN22, using p-nitrophenyl phosphate (pNPP) as a substrate. The ability of the library members to inhibit LYP/PTPN22 catalyzed hydrolysis of pNPP was measured in a buffer containing 50 mM Bis-Tris pH 6.0, 1 mM DTT at 37° C.
As to `O=c1[nH]c2ccccc2cc1[C@@H](c1nnnn1C1CCCC1)N1CCc2ccccc2C1` [compound 37], inhibition was half-maximal at 28 µM (IC50).
Molecule `COc1ccc2cc([C@H](c3nnnn3Cc3ccccc3)N3CCCC4(CCCCC4)C3)c(=O)[nH]c2c1` [compound 27] showed an IC50 of 19.3 µM.
`Cc1ccc2[nH]c(=O)c([C@H](c3nnnn3C(C)(C)C)N3CCCC4(CCCCC4)C3)cc2c1` [compound 33] showed an IC50 of 21.2 µM.
As to `Cc1ccc2cc([C@H](c3nnnn3C3CCCC3)N3CCC[C@@H](C)C3)c(=O)[nH]c2c1` [compound 43], half-maximal inhibition (IC50) required 31.9 µM.
On the same count and under the same terms, for `CCC(C)(C)n1nnnc1[C@@H](c1cc2cc(C)ccc2[nH]c1=O)N1CCCC2(CCCCC2)C1` [compound 9] the value was 10.4 µM; for `Cc1cc(C)c2cc([C@H](c3nnnn3C3CCCC3)N3CCC[C@@H](C)C3)c(=O)[nH]c2c1` [compound 40], 30.6 µM; for `Cc1ccc2[nH]c(=O)c([C@@H](c3nnnn3C3CCCC3)N(CCc3ccccc3)Cc3ccccc3)cc2c1` [compound 16], 13.3 µM.
The same measure, in the same setting: for `CCC(C)(C)n1nnnc1[C@@H](c1cc2ccc(C)cc2[nH]c1=O)N1CCCC2(CCCCC2)C1` [compound 34] the value was 21.4 µM.
Take `Cc1ccc2cc([C@H](c3nnnn3C(C)(C)C)N3CCCC4(CCCCC4)C3)c(=O)[nH]c2c1` [compound 29]: the IC50 was 20.3 µM.
The same measure, in the same setting: as for `Cc1ccc2[nH]c(=O)c([C@@H](c3nnnn3Cc3ccccc3)N3CCCC4(CCCCC4)C3)cc2c1` [compound 11], the figure is 11.1 µM; as for `Cc1ccc2cc([C@H](c3nnnn3Cc3ccccc3)N3CCCC4(CCCCC4)C3)c(=O)[nH]c2c1C` [compound 25], 18.1 µM.

Staying with this assay, now noted: selectivity, ratio PEST IC50 / LYP IC50, Table IV.
With `O=c1[nH]c2ccccc2cc1[C@@H](c1nnnn1C1CCCC1)N1CCc2ccccc2C1` [compound 37], the PEST_LYP is given as 1.13.
With `COc1ccc2cc([C@H](c3nnnn3Cc3ccccc3)N3CCCC4(CCCCC4)C3)c(=O)[nH]c2c1` [compound 27], the PEST_LYP came to 0.71.
On to `Cc1ccc2[nH]c(=O)c([C@H](c3nnnn3C(C)(C)C)N3CCCC4(CCCCC4)C3)cc2c1` [compound 33], for which the PEST_LYP came to 1.33.
As to `Cc1ccc2cc([C@H](c3nnnn3C3CCCC3)N3CCC[C@@H](C)C3)c(=O)[nH]c2c1` [compound 43], the PEST_LYP turned out to be 2.52.
Still for that read-out and setting: for `CCC(C)(C)n1nnnc1[C@@H](c1cc2cc(C)ccc2[nH]c1=O)N1CCCC2(CCCCC2)C1` [compound 9] the value was 1.53; for `Cc1cc(C)c2cc([C@H](c3nnnn3C3CCCC3)N3CCC[C@@H](C)C3)c(=O)[nH]c2c1` [compound 40], 1.12; for `Cc1ccc2[nH]c(=O)c([C@@H](c3nnnn3C3CCCC3)N(CCc3ccccc3)Cc3ccccc3)cc2c1` [compound 16], 1.46.
For the molecule `CCC(C)(C)n1nnnc1[C@@H](c1cc2ccc(C)cc2[nH]c1=O)N1CCCC2(CCCCC2)C1` [compound 34], the PEST_LYP was determined as 1.6.
The same measure, in the same setting: for `Cc1ccc2cc([C@H](c3nnnn3C(C)(C)C)N3CCCC4(CCCCC4)C3)c(=O)[nH]c2c1` [compound 29] the value was 1.33.
For `Cc1ccc2[nH]c(=O)c([C@@H](c3nnnn3Cc3ccccc3)N3CCCC4(CCCCC4)C3)cc2c1` [compound 11], the PEST_LYP came out at 1.36.
As for `Cc1ccc2cc([C@H](c3nnnn3Cc3ccccc3)N3CCCC4(CCCCC4)C3)c(=O)[nH]c2c1C` [compound 25], the PEST_LYP was determined as 0.99.

The next assay addresses T2, PTP-PEST (Homo sapiens, UniProt Q05209).
T2 sequence (Q05209 2-323): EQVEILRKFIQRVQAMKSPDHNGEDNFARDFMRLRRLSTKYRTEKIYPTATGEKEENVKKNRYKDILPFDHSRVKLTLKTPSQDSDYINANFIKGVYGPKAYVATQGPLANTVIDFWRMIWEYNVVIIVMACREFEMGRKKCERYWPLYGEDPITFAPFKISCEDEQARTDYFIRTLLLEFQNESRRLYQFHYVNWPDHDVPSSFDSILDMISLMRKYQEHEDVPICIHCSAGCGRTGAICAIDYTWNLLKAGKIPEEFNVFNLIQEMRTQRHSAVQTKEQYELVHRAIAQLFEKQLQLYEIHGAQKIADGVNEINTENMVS
Briefly: Counter-screen phosphatase assay PTP-PEST. Particulars: Table II; read-out: PTP-PEST IC50. The assay is classed as biochemical. A general note: A counterscreen serves to expose hits that act by an unwanted route or on another target.
As for `COc1ccc(-n2ncc3c(SCC(=O)N4c5ccccc5CC4C)ncnc32)cc1` (racemic) [B11P32], the IC50 is greater than 40 µM.

The assay is the same for the next values; noted with them: read-out: PEST IC50.
As to `O=c1[nH]c2ccccc2cc1[C@@H](c1nnnn1C1CCCC1)N1CCc2ccccc2C1` [compound 37], the IC50 came to 31.5 µM.
On to `COc1ccc2cc([C@H](c3nnnn3Cc3ccccc3)N3CCCC4(CCCCC4)C3)c(=O)[nH]c2c1` [compound 27], for which the IC50 was 13.7 µM.
`Cc1ccc2[nH]c(=O)c([C@H](c3nnnn3C(C)(C)C)N3CCCC4(CCCCC4)C3)cc2c1` [compound 33]: the IC50 was 28.2 µM.
Take `Cc1ccc2cc([C@H](c3nnnn3C3CCCC3)N3CCC[C@@H](C)C3)c(=O)[nH]c2c1` [compound 43]: the concentration for half-maximal inhibition (IC50) was 80.3 µM.
Same read-out and setting: for `CCC(C)(C)n1nnnc1[C@@H](c1cc2cc(C)ccc2[nH]c1=O)N1CCCC2(CCCCC2)C1` [compound 9] the value was 15.9 µM.
Turning to `Cc1cc(C)c2cc([C@H](c3nnnn3C3CCCC3)N3CCC[C@@H](C)C3)c(=O)[nH]c2c1` [compound 40], the IC50 was determined as 34.4 µM.
Turning to `Cc1ccc2[nH]c(=O)c([C@@H](c3nnnn3C3CCCC3)N(CCc3ccccc3)Cc3ccccc3)cc2c1` [compound 16], the IC50 came out at 19.7 µM.
Take `CCC(C)(C)n1nnnc1[C@@H](c1cc2ccc(C)cc2[nH]c1=O)N1CCCC2(CCCCC2)C1` [compound 34]: the IC50 was 34.2 µM.
Regarding `Cc1ccc2cc([C@H](c3nnnn3C(C)(C)C)N3CCCC4(CCCCC4)C3)c(=O)[nH]c2c1` [compound 29], the IC50 is 27.1 µM.
`Cc1ccc2[nH]c(=O)c([C@@H](c3nnnn3Cc3ccccc3)N3CCCC4(CCCCC4)C3)cc2c1` [compound 11]: the IC50 was 15.1 µM.
With `Cc1ccc2cc([C@H](c3nnnn3Cc3ccccc3)N3CCCC4(CCCCC4)C3)c(=O)[nH]c2c1C` [compound 25], the IC50 is 17.8 µM.

In the next assay the target is T3, CD45 (Homo sapiens, UniProt P08575).
T3 construct: The catalytic domain of CD45 was purchased from Biomol Inc; purchased Biomol Inc
T3 sequence (P08575 653-912 limits assumed): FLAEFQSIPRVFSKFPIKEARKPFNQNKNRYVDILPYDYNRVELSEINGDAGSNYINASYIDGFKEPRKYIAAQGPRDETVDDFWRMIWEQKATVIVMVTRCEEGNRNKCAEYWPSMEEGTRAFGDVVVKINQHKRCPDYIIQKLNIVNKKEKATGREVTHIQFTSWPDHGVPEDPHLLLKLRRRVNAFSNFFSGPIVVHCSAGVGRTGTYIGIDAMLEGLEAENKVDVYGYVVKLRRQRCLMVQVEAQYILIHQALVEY
As to the kind of experiment: Counter-screen phosphatase assay CD45. Type of assay: biochemical. To be noted: Table II.
Procedure: Materials, chemicals and enzymes. All chemicals were purchased from commercial sources unless otherwise noted. Compounds were dissolved in DMSO, and stock solutions were stored at −20° C. The catalytic domain of CD45 was purchased from Biomol Inc.
As to `COc1ccc(-n2ncc3c(SCC(=O)N4c5ccccc5CC4C)ncnc32)cc1` (racemic) [B11P32], the IC50 is greater than 90 µM.
In turn, `O=C(CSc1nc(C2CC2)nc2sc3c(c12)CCCC3)NCc1ccc2c(c1)OCO2` [G8P15] gave an IC50 greater than 90 µM.

For another assay, the target named is T4, HePTP (Homo sapiens, UniProt P35236).
T4 sequence (P35236 65-360): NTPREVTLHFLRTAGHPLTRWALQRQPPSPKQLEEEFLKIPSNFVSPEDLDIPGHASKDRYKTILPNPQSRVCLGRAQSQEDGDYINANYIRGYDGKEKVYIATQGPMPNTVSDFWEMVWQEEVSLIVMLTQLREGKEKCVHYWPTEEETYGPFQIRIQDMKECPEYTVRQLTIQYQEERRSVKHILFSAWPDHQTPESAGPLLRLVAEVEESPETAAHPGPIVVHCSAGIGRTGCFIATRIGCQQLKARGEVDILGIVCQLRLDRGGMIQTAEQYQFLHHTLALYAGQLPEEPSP
As to the kind of experiment: biochemical.
Conditions: not given
The molecule `O=C(CSc1nc(C2CC2)nc2sc3c(c12)CCCC3)NCc1ccc2c(c1)OCO2` [G8P15] registered an IC50 greater than 40 µM.

For the next assay, the target named is T5, LMPTP-A (Homo sapiens, UniProt P24666).
T5 sequence (P24666 1-158): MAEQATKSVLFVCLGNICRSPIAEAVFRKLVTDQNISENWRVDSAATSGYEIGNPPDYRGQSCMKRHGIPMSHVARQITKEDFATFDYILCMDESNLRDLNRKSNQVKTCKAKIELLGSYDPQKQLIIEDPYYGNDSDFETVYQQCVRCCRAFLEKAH
Briefly: biochemical.
Conditions: not given
In turn, `COc1ccc(-n2ncc3c(SCC(=O)N4c5ccccc5CC4C)ncnc32)cc1` (racemic) [B11P32] had an IC50 greater than 90 µM.
The molecule `O=C(CSc1nc(C2CC2)nc2sc3c(c12)CCCC3)NCc1ccc2c(c1)OCO2` [G8P15] gave an IC50 greater than 90 µM.

The next assay deals with ERK1/2 phosphorylation. Briefly: Anti-pERK1/2 blot of JTAg cells. To be noted: 50 μM, 1 h.
Procedure: (§1) The volume of DMSO added was held constant at less than 2% of the total volume. JTAg cells pre-incubated with DMSO or inhibitor were divided into 400 μL aliquots containing 10×10^6 cells and stimulated with supernatants of C305 hybridoma (31) for 2 min or left untreated. […] The total protein concentration in each cell lysate was determined by the Bradford protein assay (Bio-Rad) in order to normalize the amount of protein used in SDS-PAGE.
(§2) Aliquots of lysates were suspended in SDS sample buffer, heated at 95° C. for 5 minutes and the boiled samples run on 10% SDS-polyacrylamide gels. Proteins resolved by gel electrophoresis were transferred onto nitrocellulose membranes (Hybond ECL, GE Healthcare), using appropriate dilutions of unconjugated primary antibodies followed by HRP-conjugated secondary antibodies (purchased from GE Healthcare). Blots were developed with the enhanced chemiluminescence detection system, ECL-Plus, following manufacturers directions.
Consider `Cc1ccc2[nH]c(=O)c(C(c3nnnn3C3CCCC3)N3CCCC4(CCCCC4)C3)cc2c1` (racemic) [E3P13], for which the ERK1/2 phosphorylation entry was “increased ERK1/2 phosphorylation”.

The subject of another assay is phosphorylation of ZAP-70. As to the kind of experiment: Anti-pZAP (Tyr319) blot of JTAg cells. To be noted: 50 μM, 1 h.
Procedure: as §1, §2
Turning to `Cc1ccc2[nH]c(=O)c(C(c3nnnn3C3CCCC3)N3CCCC4(CCCCC4)C3)cc2c1` (racemic) [E3P13], the “TCR-stimulated phosphorylation of ZAP-70 (Tyr319)” value was “increased TCR-stimulated phosphorylation of ZAP-70”.

Another assay deals with TCR-induced phosphorylation of SLP-76. Briefly: Phospho-flow cytometry of JTAg cells, anti-pSLP76 (Tyr128). To be noted: 50 μM, 1 h, compared to control.
Procedure: Phosphoflow cytometry. Phospho-flow cytometry was performed on JTAg cells following published protocols (BD Biosciences). […] Cell fluorescence was assessed on a Cytomics FC500 cytometer (Beckman Coulter) at the USC Immune Monitoring Core. Data Analysis and graph preparation were carried using FlowJo (Tree Star, Inc., Ashland, Oreg.).
Consider `Cc1ccc2[nH]c(=O)c(C(c3nnnn3C3CCCC3)N3CCCC4(CCCCC4)C3)cc2c1` (racemic) [E3P13], for which the “TCR-induced SLP-76 phosphorylation” value was “higher levels of TCR-induced SLP-76 phosphorylation”.

A further assay concerns phosphorylation of Lck at Tyr394. Briefly: Anti-pSrc (Tyr416) immunoblot of thymocytes from PTPN22+/+ mice. To be noted: 50 μM, 1 h, anti-CD3/anti-CD4 plus streptavidin. On the technique in general: Immunoblotting shows a protein as a band on a membrane.
Procedure: (§3) The volume of DMSO added was held constant at less than 2% of the total volume. Thymocytes pre-incubated with DMSO or inhibitor were divided into 200 μL aliquots containing 10×10^6 cells, treated with biotinylated CD3 and CD4 antibodies for 30 min and stimulated with the crosslinker, streptavidin for 1.5 min, or left untreated.
as §2
(§4) In parallel, the compound was also tested on T cells from normal PTPN22+/+ mice.
Consider `Cc1ccc2[nH]c(=O)c(C(c3nnnn3C3CCCC3)N3CCCC4(CCCCC4)C3)cc2c1` (racemic) [E3P13], for which the “Lck phosphorylation at Tyr394” value was “increased Lck phosphorylation at Tyr394”.

The next assay has the same test system. Briefly: Anti-pSrc (Tyr416) immunoblot of thymocytes from PTPN22-/- mice. Particulars: 50 μM, 1 h, anti-CD3/anti-CD4 plus streptavidin.
Procedure: as §3, §2, §4
As to `Cc1ccc2[nH]c(=O)c(C(c3nnnn3C3CCCC3)N3CCCC4(CCCCC4)C3)cc2c1` (racemic) [E3P13], the “phosphorylation of Lck at Tyr394” value is “no effect”.
